How the values were obtained:
Histone deacetylase 1 = Histone deacetylase 1 (Homo sapiens, UniProt Q13547); experiment: Inhibition of HDAC1 (unknown origin)
Histone deacetylase 2 = Histone deacetylase 2 (Homo sapiens, UniProt Q92769); experiment: Inhibition of HDAC2 (unknown origin)
Histone deacetylase 8 = target: T1, Histone deacetylase 8 (Homo sapiens, UniProt Q9BY41); experiment: Inhibition of HDAC8 (unknown origin)
T1 sequence (Q9BY41 whole entry): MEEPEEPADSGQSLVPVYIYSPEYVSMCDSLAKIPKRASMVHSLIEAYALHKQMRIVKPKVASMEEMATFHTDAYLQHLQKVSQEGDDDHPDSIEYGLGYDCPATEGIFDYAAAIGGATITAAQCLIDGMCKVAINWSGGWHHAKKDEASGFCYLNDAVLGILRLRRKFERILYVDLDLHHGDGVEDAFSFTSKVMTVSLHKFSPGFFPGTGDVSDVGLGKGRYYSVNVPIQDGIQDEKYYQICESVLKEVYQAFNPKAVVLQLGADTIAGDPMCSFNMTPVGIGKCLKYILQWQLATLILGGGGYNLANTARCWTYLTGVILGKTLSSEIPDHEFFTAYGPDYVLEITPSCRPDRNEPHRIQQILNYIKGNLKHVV

Histone deacetylase 3 = Histone deacetylase 3 (Homo sapiens, UniProt O15379); experiment: Inhibition of HDAC3 (unknown origin)
Chain of Histone deacetylase 3 (O15379 whole entry): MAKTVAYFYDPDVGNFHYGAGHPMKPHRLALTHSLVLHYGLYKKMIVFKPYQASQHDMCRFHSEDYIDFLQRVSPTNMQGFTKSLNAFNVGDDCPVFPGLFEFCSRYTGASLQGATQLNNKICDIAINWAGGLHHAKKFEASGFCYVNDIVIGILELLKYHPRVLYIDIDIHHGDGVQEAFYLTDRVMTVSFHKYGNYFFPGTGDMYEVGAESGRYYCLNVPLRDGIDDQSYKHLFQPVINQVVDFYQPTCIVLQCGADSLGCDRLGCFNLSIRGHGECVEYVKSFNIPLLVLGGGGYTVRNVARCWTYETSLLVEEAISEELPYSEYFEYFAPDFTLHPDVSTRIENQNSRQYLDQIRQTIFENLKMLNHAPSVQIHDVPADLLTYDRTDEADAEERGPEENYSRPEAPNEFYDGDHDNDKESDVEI

[1] = target: T2, Protein deacetylase HDAC6 (Homo sapiens, UniProt Q9UBN7); experiment: Inhibition of HDAC6 (unknown origin)
T2 sequence (Q9UBN7 whole entry): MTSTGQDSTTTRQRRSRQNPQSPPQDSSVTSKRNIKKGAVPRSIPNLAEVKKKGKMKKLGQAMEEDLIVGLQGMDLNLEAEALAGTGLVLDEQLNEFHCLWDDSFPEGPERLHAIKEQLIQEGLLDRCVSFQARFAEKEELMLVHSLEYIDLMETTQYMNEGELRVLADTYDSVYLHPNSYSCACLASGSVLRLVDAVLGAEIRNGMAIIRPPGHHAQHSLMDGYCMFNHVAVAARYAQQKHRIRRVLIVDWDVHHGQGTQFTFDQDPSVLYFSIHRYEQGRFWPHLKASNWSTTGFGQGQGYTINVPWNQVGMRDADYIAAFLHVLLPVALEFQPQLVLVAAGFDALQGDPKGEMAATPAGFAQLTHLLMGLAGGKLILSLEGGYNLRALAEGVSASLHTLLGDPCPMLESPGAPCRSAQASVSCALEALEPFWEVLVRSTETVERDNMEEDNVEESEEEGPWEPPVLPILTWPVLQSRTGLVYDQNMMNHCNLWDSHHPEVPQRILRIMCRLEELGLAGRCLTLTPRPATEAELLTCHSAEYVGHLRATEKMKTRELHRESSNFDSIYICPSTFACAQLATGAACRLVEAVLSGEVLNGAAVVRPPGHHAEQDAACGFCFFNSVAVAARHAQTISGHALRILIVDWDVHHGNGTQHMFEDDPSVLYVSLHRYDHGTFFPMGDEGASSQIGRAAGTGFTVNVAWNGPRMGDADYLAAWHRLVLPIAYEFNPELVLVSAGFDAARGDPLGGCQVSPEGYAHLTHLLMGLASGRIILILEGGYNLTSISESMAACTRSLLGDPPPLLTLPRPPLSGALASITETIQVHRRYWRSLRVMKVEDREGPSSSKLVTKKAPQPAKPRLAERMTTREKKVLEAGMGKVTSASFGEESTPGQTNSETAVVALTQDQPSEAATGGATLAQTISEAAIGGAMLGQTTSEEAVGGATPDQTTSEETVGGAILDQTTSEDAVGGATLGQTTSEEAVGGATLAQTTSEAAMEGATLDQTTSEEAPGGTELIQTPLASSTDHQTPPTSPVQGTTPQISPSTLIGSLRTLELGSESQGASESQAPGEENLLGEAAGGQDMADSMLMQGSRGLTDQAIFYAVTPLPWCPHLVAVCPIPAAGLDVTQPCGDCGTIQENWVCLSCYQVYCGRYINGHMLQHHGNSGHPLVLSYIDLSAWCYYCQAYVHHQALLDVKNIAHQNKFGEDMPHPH

Chain of Histone deacetylase 1 (Q13547 whole entry): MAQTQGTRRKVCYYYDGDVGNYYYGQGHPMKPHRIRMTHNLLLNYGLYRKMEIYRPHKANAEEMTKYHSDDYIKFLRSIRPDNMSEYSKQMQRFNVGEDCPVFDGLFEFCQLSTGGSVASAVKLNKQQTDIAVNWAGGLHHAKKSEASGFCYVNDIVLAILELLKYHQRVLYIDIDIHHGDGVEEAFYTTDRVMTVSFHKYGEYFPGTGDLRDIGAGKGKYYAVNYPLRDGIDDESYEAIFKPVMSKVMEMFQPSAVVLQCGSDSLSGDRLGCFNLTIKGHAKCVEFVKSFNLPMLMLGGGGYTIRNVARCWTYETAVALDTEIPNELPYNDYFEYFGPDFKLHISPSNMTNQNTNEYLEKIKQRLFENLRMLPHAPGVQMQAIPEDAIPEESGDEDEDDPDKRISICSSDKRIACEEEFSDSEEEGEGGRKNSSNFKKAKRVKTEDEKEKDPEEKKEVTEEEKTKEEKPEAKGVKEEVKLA
Chain of Histone deacetylase 2 (Q92769 whole entry): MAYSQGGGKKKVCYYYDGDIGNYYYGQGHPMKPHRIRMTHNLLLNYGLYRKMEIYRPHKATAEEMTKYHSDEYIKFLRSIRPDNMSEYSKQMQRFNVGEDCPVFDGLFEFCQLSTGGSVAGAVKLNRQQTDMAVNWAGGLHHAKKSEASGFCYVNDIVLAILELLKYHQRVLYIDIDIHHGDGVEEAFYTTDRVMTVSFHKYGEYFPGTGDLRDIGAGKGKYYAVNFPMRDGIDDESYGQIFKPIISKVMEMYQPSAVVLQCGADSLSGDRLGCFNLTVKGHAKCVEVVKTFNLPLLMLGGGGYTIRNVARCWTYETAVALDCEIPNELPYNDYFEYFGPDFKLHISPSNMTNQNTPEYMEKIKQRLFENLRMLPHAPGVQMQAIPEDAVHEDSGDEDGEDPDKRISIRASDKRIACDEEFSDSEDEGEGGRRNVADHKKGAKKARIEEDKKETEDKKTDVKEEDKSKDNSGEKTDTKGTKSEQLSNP

With `O=C(CCCCCCC(=O)NC[C@H]1O[C@@H]2O[C@H]3[C@H](O)[C@@H](O)[C@@H](O[C@H]4[C@H](O)[C@@H](O)[C@@H](O[C@H]5[C@H](O)[C@@H](O)[C@@H](O[C@H]6[C@H](O)[C@@H](O)[C@@H](O[C@H]7[C@H](O)[C@@H](O)[C@@H](O[C@H]8[C@H](O)[C@@H](O)[C@@H](O[C@H]1[C@H](O)[C@H]2O)O[C@@H]8CO)O[C@@H]7CO)O[C@@H]6CO)O[C@@H]5CO)O[C@@H]4CO)O[C@@H]3CO)NO` the IC50 (Histone deacetylase 1) was 630 nM, the IC50 (Histone deacetylase 2) was 1200 nM and the IC50 (Histone deacetylase 8) was 6000 nM. It also gave an IC50 (Histone deacetylase 3) of 1600 nM and an IC50 [1] of 120 nM.

— ChEMBL document CHEMBL2384983, “A cyclodextrin-capped histone deacetylase inhibitor” (Bioorg Med Chem Lett, 2013)
